Measurements reported in ChEMBL document CHEMBL5380794, “Discovery of a Potent and Selective STAT5 PROTAC Degrader with Strong Antitumor Activity In Vivo in Acute Myeloid Leukemia” (J Med Chem, 2023).
Active and inactive are the calls of the source. The rule behind the calls is not given here.

Legend:
SKNO-1 = assay: Effect on STAT4 level in human SKNO-1 cells upto 5 uM measured for 18 hrs by Western blot analysis; format: functional, cell-based
MV4-11 [1] = assay: Effect on STAT6 level in human MV4-11 cells upto 5 uM measured for 18 hrs by Western blot analysis; format: functional, cell-based
[2] = Antiproliferative activity against human SKNO-1 cells assessed as cell growth inhibition measured for 4 days by celltiter-glo assay; settings: SKNO-1, 96 h
MV4-11 [3] = assay: Antiproliferative activity against human MV4-11 cells assessed as cell growth inhibition measured for 4 days by celltiter-glo assay; settings: MV4-11, 96 h
[4] = Antiproliferative activity against human OCI-M2 cells assessed as cell growth inhibition measured for 4 days by celltiter-glo assay; settings: OCI-M2, 96 h
[5] = Antiproliferative activity against human BDCM cells assessed as cell growth inhibition measured for 4 days by celltiter-glo assay; settings: 96 h
MOLM-13 = assay: Antiproliferative activity against human MOLM-13 cells assessed as cell growth inhibition measured for 4 days by celltiter-glo assay; settings: MOLM-13, 96 h
HL-60 [6] = assay: Antiproliferative activity against human HL-60 cells assessed as cell growth inhibition measured for 4 days by celltiter-glo assay; settings: HL-60, 96 h
MV4-11 [7] = assay: Antiproliferative activity against human MV4-11 cells assessed as maximal cell growth inhibition measured for 4 days by celltiter-glo assay relative to control; format: functional; settings: time 4 day
[8] = Antiproliferative activity against human Kasumi-3 cells assessed as maximal cell growth inhibition measured for 4 days by celltiter-glo assay relative to control; format: functional; settings: time 4 day
[9] = Antiproliferative activity against human OCI-M2 cells assessed as maximal cell growth inhibition measured for 4 days by celltiter-glo assay relative to control; format: functional; settings: time 4 day
HL-60 [10] = assay: Antiproliferative activity against human HL-60 cells assessed as maximal cell growth inhibition measured for 4 days by celltiter-glo assay relative to control; format: functional; settings: time 4 day
[11] = Half life in SCID mouse at 150 mg/kg, ip; format: ADME, organism-based; settings: in vivo
[12] = Clearance in SCID mouse at 150 mg/kg, ip; format: ADME, organism-based; settings: in vivo
Mus musculus [13] = assay: In vivo induction of degradation of STAT5 in human MV4-11 cells xenografted in SCID mouse assessed as reduction in STAT5 levels at 150 mg/kg, ip measured at 1 hrs by immunoblotting analysis; format: functional, organism-based
Mus musculus [14] = assay: In vivo induction of degradation of STAT5 in human MV4-11 cells xenografted in SCID mouse assessed as reduction in STAT5 phosphorylation at Y694 residue at 150 mg/kg, ip measured at 1 hrs by immunoblotting analysis; format: functional, organism-based
[15] = In vivo induction of degradation of STAT5 in human MV4-11 cells xenografted in SCID mouse assessed as reduction in STAT5 levels at 150 mg/kg, ip measured at 24 hrs by immunoblotting analysis; format: functional; design: scale not given: the % may be the effect or the level left
MV4-11 [16] = assay: Antitumor activity against human MV4-11 cells xenografted in SCID mouse assessed as tumor growth inhibition at 100 mg/kg, ip administered 5 days a week for 3 weeks; format: functional; settings: MV4-11, 504 h, read-out: TGI
[17] = Toxicity in SCID mouse assessed as effect on sign of illness at 50 to 200 mg/kg, ip administered 5 days a week for 3 weeks; format: organism-based; settings: in vivo, 120 h, dose 50-200 mg/kg, time 5 day
STAT5A/STAT5B [18] = target: T1, STAT5A/STAT5B (Homo sapiens, UniProt P42229+P51692); assay: Induction of STAT5A/5B degradation in human Kasumi-3 cells measured for 18 hrs by immunoblotting analysis; format: cell-based
T1 sequence (P42229 whole entry): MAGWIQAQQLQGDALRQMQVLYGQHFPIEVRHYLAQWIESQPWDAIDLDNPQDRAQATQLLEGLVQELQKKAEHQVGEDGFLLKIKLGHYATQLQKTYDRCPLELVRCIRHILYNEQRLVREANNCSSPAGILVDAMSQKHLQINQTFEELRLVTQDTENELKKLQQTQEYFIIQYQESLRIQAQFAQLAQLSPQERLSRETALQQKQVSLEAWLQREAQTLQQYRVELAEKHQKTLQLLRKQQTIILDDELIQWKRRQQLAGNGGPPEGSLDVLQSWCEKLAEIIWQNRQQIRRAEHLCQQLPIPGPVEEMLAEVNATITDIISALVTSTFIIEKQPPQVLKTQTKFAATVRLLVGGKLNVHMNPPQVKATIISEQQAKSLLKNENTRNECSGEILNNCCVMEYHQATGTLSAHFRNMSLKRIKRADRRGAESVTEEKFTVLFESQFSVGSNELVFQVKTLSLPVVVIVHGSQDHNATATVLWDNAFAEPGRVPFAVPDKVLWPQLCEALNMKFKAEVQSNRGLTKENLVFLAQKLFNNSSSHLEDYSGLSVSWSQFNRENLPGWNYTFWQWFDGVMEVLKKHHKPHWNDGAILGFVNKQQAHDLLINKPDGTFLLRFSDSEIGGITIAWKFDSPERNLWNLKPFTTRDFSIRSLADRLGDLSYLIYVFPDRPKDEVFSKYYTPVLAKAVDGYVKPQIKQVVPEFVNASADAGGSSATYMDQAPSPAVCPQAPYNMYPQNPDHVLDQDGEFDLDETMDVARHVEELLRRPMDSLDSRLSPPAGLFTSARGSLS
T1 sequence (P51692 whole entry): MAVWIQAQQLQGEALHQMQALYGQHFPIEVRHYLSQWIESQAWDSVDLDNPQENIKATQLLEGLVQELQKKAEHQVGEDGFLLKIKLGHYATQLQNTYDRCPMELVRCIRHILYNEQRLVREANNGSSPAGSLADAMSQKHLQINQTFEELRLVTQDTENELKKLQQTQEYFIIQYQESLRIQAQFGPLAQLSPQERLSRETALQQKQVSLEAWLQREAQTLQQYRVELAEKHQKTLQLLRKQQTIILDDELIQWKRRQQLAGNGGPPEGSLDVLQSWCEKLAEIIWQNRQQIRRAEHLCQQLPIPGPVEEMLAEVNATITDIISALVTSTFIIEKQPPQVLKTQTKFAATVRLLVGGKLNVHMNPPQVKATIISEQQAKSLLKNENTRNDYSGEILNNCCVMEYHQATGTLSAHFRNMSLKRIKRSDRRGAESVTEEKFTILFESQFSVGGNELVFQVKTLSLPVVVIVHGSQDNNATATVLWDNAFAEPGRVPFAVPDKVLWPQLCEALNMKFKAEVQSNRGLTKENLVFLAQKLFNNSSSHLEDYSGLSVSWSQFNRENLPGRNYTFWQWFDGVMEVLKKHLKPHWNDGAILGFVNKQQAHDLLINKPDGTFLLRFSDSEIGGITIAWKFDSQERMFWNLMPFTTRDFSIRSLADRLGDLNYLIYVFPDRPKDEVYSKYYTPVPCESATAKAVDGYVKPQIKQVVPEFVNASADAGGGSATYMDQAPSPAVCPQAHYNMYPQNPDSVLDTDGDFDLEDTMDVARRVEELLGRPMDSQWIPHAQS

STAT5A/STAT5B [19] = target: T1, STAT5A/STAT5B; assay: Induction of STAT5A/5B degradation in human RS4-11 cells measured for 18 hrs by immunoblotting analysis; format: cell-based
STAT5A/STAT5B [20] = target: T1, STAT5A/STAT5B; assay: Induction of STAT5A/5B degradation in human OCI-M2 cells measured for 18 hrs by immunoblotting analysis; format: cell-based

IC50 (MV4-11 [3]): 180 nM
IC50 (MOLM-13): > 15000 nM
IC50 (HL-60 [6]): > 15000 nM
half-life [11]: 1.9 h
CL/F [12]: 12.8 mL/min/kg
DC50 (STAT5A/STAT5B [18]): 180 nM
DC50 (STAT5A/STAT5B [19]): 70 nM
DC50 (STAT5A/STAT5B [20]): 700 nM
SMILES: CN(CCCC#Cc1cccc2c1CN(C1CCC(=O)NC1=O)C2=O)C(=O)CCN(C(=O)[C@@H]1CCCN1C(=O)[C@@H](NC(=O)c1cc2cc(C(F)(F)P(=O)(O)O)ccc2s1)C(C)(C)C)c1ccc(-c2nccs2)cc1 (some centres not stated)
Activity (SKNO-1): inactive
Activity (MV4-11 [1]): inactive
IC50 [2]: 360 nM
IC50 [4]: > 15000 nM
IC50 [5]: > 15000 nM
Imax (MV4-11 [7]): 65%
Imax [8]: 72%
Imax [9]: <5%
Imax (HL-60 [10]): <5%
Activity (Mus musculus [13]): Active
Activity (Mus musculus [14]): Active
Activity [15]: >70%
inhibition in vivo at 100 mg/kg (MV4-11 [16]): 60%
Activity [17]: Non-Toxic
